Results: patent US20240261424A1, “ANTIBODY DRUG CONJUGATE” (NATIONAL CANCER CENTER, priority 2020, published 2024)
Where two headings read alike, the source gives them in different places. Where a SMILES comes first, the peptide text is derived from it. [ ]: non-standard residue; d: D form. The star is where a group is joined. Dolaproine = CO[C@@H]([C@@H]1CCCN1)[C@@H](C)C(=O)O; Dil = CC[C@H](C)[C@H](NC)[C@@H](CC(=O)O)OC; X1 = C[C@@H](N*)[C@@H](O)c1ccccc1; NMeV = CN[C@H](C(=O)O)C(C)C

Columns and labels:
[1] = tested on: human pancreatic adenocarcinoma cell line (BxPC-3); experiment: Cell-killing effect on BxPC-3; format: cell-based; settings: read-out: IC50 values for BxPC-3
Protocol: (§1) The ADCs prepared above were evaluated in vitro for their cell-killing effects on human pancreatic adenocarcinoma cells by the following method.
(§2) RPMI-1640 supplemented with 10% fetal bovine serum and penicillin-streptomycin-[…] (×100) suspension was used as the culture medium. Human pancreatic adenocarcinoma BxPC-3, PSN-1, and HPAF-II were adjusted to 5000 cells/mL, 2000 cells/mL, and 5000 cells/mL, respectively, and seeded on 96-well plates at 100 μL/well and allowed to stand overnight in a CO2 incubator (37° C.).
(§3) The ADCs, Dxd single agent, and MMAE single agent were each adjusted with a culture solution so that the final concentration (in terms of MMAE and Dxd) was 0.1, 0.3, 1, 3, 10, 30, 100 nM, or the like, and were added at 100 μL/well to a 96-well plate inoculated with each human pancreatic adenocarcinoma, and then allowed to stand in a CO2 incubator (37° C.) for 6 days. Then, the culture medium containing the drug was removed with an aspirator, and the number of viable cells was measured by Cell Counting Kit-8 (manufactured by Dojindo Laboratories) according to the attached protocol. The reaction time of the reagent was three hours, and the absorbance was measured by SpectraMax Paradigm (manufactured by Molecular Devices). FIGS. 1A to 1E show the results of the cell-killing effects.

[2] = tested on: human pancreatic adenocarcinoma cell line (PSN-1); experiment: Cell-killing effect on PSN-1; format: cell-based; settings: read-out: IC50 values for PSN-1
Protocol: as §1, §2, §3

Structure (SMILES) | IC50 ([1]; FIG. 1A, concentration in terms of MMAE and Dxd, 6 days, Cell Counting Kit-8) [nM] | IC50 ([2]; FIG. 1B, concentration in terms of MMAE and Dxd, 6 days, Cell Counting Kit-8) [nM] | IC50 ([1]; Homo sapiens, BXPC-3, 144 h) [nM] | IC50 ([2]; Homo sapiens, PSN1, 144 h) [nM]
CC[C@H](C)[C@@H]([C@@H](CC(=O)N1CCC[C@H]1[C@H](OC)[C@@H](C)C(=O)N[C@H](C)[C@@H](O)c1ccccc1)OC)N(C)C(=O)[C@@H](NC(=O)[C@@H](NC)C(C)C)C(C)C [MMAE, monomethyl auristatin E] (H-[NMeV]V[Dil][Dolaproine]-X1) | 0.62 ± 0.04 | 0.73 ± 0.04 | – | –
CC[C@@]1(O)C(=O)OCc2c1cc1n(c2=O)Cc2c-1nc1cc(F)c(C)c3c1c2[C@@H](NC(=O)CO)CC3 [Dxd] | – | – | 2.58 ± 0.26 | 7.92 ± 0.84
